Laboratory results taken from ChEMBL document CHEMBL5518209, “Caltrop-like Small-Molecule Antidotes That Neutralize Unfractionated Heparin and Low-Molecular-Weight Heparin In Vivo” (J Med Chem, 2024).
Activity calls are given as the source filed them. The rule behind the calls is not given here.

Key:
[1] = Acute toxicity in iv dosed ICR mouse assessed as maximum tolerated dose measured after 7 days; type: organism-based; conditions: in vivo, time 7 day
Homo sapiens [2] = species: Homo sapiens; assay: Reversal of anticoagulation of unfractionated heparin in human whole blood assessed as restoration of normal clotting time at 5 to 20 ug/ml incubated for 5 mins by thromboelastography; type: tissue-based; conditions: dose 5-20 µg/ml
[3] = Binding affinity to enoxaparin sodium in saline at pH 7.4 assessed as increase in fluorescence by measuring inflection point by fluorescence titration method
Rattus norvegicus [4] = assay: In vivo antagonism of enoxaparin sodium induced anticoagulation in Sprague-Dawley rat assessed as clotting strength at 0.4 mg/kg, iv administered via tail vein pretreated with enoxaparin sodium for 5 mins followed by compound addition and measured after 2.5 mins by thromboelastography; type: functional
[5] = Blood compatibility in bovine plasma assessed as activated partial thromboplastin time at <45 ug/ml by turbidimetry method; type: toxicity, cell-free, Bos taurus; conditions: cattle, dose < 45 µg/ml
[6] = Binding affinity to unfractionated heparin in saline at pH 7.4 assessed as binding constant by ITC analysis
[7] = Binding affinity to unfractionated heparin in saline at pH 7.4 assessed as increase in fluorescence by measuring inflection point by fluorescence titration method
Bos taurus [8] = species: Bos taurus; assay: Neutralization of unfractionated heparin in bovine plasma at 10 to 60 ug/ml by aPTT assay; type: cell-free; conditions: dose 10-60 µg/ml
Homo sapiens [9] = species: Homo sapiens; assay: Neutralization of unfractionated heparin in human poor platelet plasma at 10 to 50 ug/ml by aPTT assay relative to control; type: cell-free; conditions: dose 10-50 µg/ml
[10] = Binding affinity to dalteparin sodium in saline at pH 7.4 assessed as increase in fluorescence by measuring inflection point by fluorescence titration method
Mus musculus [11] = assay: In vivo antagonism of dalteparin sodium induced anticoagulation in ICR mouse assessed as blood loss at 0.4 mg/kg, iv administered via tail vein pretreated with heparin for 5 mins followed by compound addition and measured after 5 mins (reference value: 324.4 +/- 139.5 microL); type: functional
[12] = Binding affinity to unfractionated heparin in saline at pH 7.4 assessed as change in entropy by ITC analysis
[13] = Toxicity in ICR mouse assessed as effect on animal activity at 0.4 to 25 mg/kg, iv administered as single dose through tail vein and measured after 3 to 14 days; type: organism-based; conditions: in vivo, dose lower 0.4 mg/kg, time lower 3 day, dose upper 25 mg/kg, time upper 14 day
[14] = Binding affinity to enoxaparin sodium in saline at pH 7.4 assessed as change in enthalpy by ITC analysis
Homo sapiens [15] = species: Homo sapiens; assay: Neutralization of nadroparin calcium in human poor platelet plasma at 10 to 50 ug/ml by aPTT assay relative to control; type: cell-free; conditions: dose 10-50 µg/ml
Bos taurus [16] = species: Bos taurus; assay: Neutralization of dalteparin sodium in bovine plasma at 10 to 60 ug/ml by aPTT assay; type: cell-free; conditions: dose 10-60 µg/ml
[17] = Binding affinity to dalteparin sodium in saline at pH 7.4 assessed as change in enthalpy by ITC analysis
[18] = Toxicity in iv dosed ICR mouse assessed as maximum tolerated dose administered through tail vein; type: organism-based; conditions: in vivo
Rattus norvegicus [19] = assay: In vivo antagonism of enoxaparin sodium induced anticoagulation in Sprague-Dawley rat assessed as clotting rate at 0.4 mg/kg, iv administered via tail vein pretreated with enoxaparin sodium for 5 mins followed by compound addition and measured after 2.5 mins by thromboelastography; type: functional
Rattus norvegicus [20] = assay: In vivo antagonism of enoxaparin sodium induced anticoagulation in Sprague-Dawley rat assessed as restoration of normal clotting strength at 1 mg/kg, iv administered via tail vein pretreated with enoxaparin sodium for 5 mins followed by compound addition and measured after 2.5 mins by thromboelastography; type: functional, organism-based
Homo sapiens [21] = species: Homo sapiens; assay: Reversal of anticoagulation of dalteparin sodium in human whole blood assessed as restoration of normal clotting time at 5 to 20 ug/ml incubated for 5 mins by thromboelastography; type: tissue-based; conditions: dose 5-20 µg/ml
Blood [22] = assay: Ex vivo neutralization of enoxaparin sodium in Sprague-Dawley rat whole blood assessed as restoration of blood coagulation at 10 to 15 ug/ml incubated for 15 mins; type: functional, tissue-based; conditions: dose 10-15 µg/ml
[23] = Binding affinity to dalteparin sodium in saline at pH 7.4 assessed as change in entropy by ITC analysis
Homo sapiens [24] = species: Homo sapiens; assay: Reversal of anticoagulation of dalteparin sodium in human whole blood assessed as minimum effective dose incubated for 5 mins by thromboelastography; type: tissue-based
[25] = Binding affinity to unfractionated heparin in saline at pH 7.4 assessed as change in gibbs free energy by ITC analysis
Blood [26] = assay: Blood compatibility in human whole blood assessed as effect on clotting strength at 0 to 20 ug/ml measured upto 50 mins by thromboelastography; type: toxicity, tissue-based; conditions: dose 0-20 µg/ml
Homo sapiens [27] = species: Homo sapiens; assay: Neutralization of dalteparin sodium in human poor platelet plasma at 10 to 50 ug/ml by aPTT assay relative to control; type: cell-free; conditions: dose 10-50 µg/ml
[28] = Cytotoxicity against rat H9c2 cells assessed as cell viability at 300 ug/ml incubated for 24 hrs by CCK-8 assay relative to control; type: toxicity, cell-based; conditions: at 300 µg/mL, read-out: Activity
[29] = Toxicity in Sprague-Dawley rat assessed as abnormal index of microalbumin at 25 mg/kg, iv measured after 5 hrs; type: organism-based; conditions: in vivo
Homo sapiens [30] = species: Homo sapiens; assay: Reversal of anticoagulation of nadroparin calcium in human whole blood assessed as minimum effective dose incubated for 5 mins by thromboelastography; type: tissue-based
[31] = Toxicity in ICR mouse assessed as effect on animal activity at 25 mg/kg, iv administered as single dose through tail vein and measured on day 2; type: organism-based; conditions: in vivo, 48 h, time 2 day
[32] = Binding affinity to dalteparin sodium in saline at pH 7.4 assessed as binding constant by ITC analysis
[33] = Toxicity in Sprague-Dawley rat assessed as change in urine indexes at 0.4 mg/kg, iv measured after 5 hrs; type: organism-based; conditions: in vivo
Mus musculus [34] = assay: In vivo antagonism of unfractionated heparin induced anticoagulation in ICR mouse assessed as blood loss at 0.4 mg/kg, iv administered via tail vein pretreated with heparin for 5 mins followed by compound addition and measured after 5 mins (reference value: 324.4 +/- 139.5 microL); type: functional
Homo sapiens [35] = species: Homo sapiens; assay: Reversal of anticoagulation of enoxaparin sodium in human whole blood assessed as minimum effective dose incubated for 5 mins by thromboelastography; type: tissue-based
Homo sapiens [36] = species: Homo sapiens; assay: Reversal of anticoagulation of nadroparin calcium in human whole blood assessed as restoration of normal clotting time at 5 to 20 ug/ml incubated for 5 mins by thromboelastography; type: tissue-based; conditions: dose 5-20 µg/ml
Erythrocyte = assay: Hemolytic activity in Sprague-Dawley rat red blood cells at 512 ug/ml; type: toxicity, cell-based; conditions: dose 512 µg/ml
Homo sapiens [37] = species: Homo sapiens; assay: Reversal of anticoagulation of nadroparin calcium in human whole blood assessed as restoration of normal coagulation rate at 5 to 20 ug/ml incubated for 5 mins by thromboelastography; type: tissue-based; conditions: dose 5-20 µg/ml
[38] = Binding affinity to nadroparin calcium in saline at pH 7.4 assessed as change in entropy by ITC analysis
[39] = Induction of blood loss in ICR mouse at 0.4 mg/kg, iv treated for 5 mins; type: toxicity, organism-based; conditions: in vivo

NCCOc1ccc(-c2cc[n+](Cc3ccc(C(c4ccc(C[n+]5ccc(-c6ccc(OCCN)c(OCCN)c6)cc5)cc4)(c4ccc(C[n+]5ccc(-c6ccc(OCCN)c(OCCN)c6)cc5)cc4)c4ccc(C[n+]5ccc(-c6ccc(OCCN)c(OCCN)c6)cc5)cc4)cc3)cc2)cc1OCCN.[Cl-].[Cl-].[Cl-].[Cl-]
MTD at 168 h [1]: 25 mg/kg | Activity (Homo sapiens [2]): Active | IP [3]: 2.2 | Activity (Rattus norvegicus [4]): 67 mm | APTT [5]: 23 s | Ka [6]: 2.92e+07 M⁻¹ | IP [7]: 2.4 | Activity (Bos taurus [8]): Active | Activity (Homo sapiens [9]): 100% | IP [10]: 2.6 | Activity (Mus musculus [11]): 26 µL | -TdeltaS [12]: -4.32 kcal/mol | Activity [13]: Non-Toxic | deltaH [14]: -7.86 kcal/mol | Activity (Homo sapiens [15]): 99% | Activity (Bos taurus [16]): Active | deltaH [17]: -5.07 kcal/mol | MTD [18]: 25 mg/kg | Activity (Rattus norvegicus [19]): 1.95 min | Activity (Rattus norvegicus [20]): Active | Activity (Homo sapiens [21]): Active | Activity (Blood [22]): Active | -TdeltaS [23]: -5.41 kcal/mol | MED (Homo sapiens [24]): 4 µg/mL | deltaG [25]: -10.2 kcal/mol | Activity (Blood [26]): Toxic | Activity (Homo sapiens [27]): 99% | viability at 24 h, 300 ug/ml [28]: > 80% | Activity [29]: Toxic | MED (Homo sapiens [30]): 4 µg/mL | Activity [31]: Toxic | Ka [32]: 4.78e+07 M⁻¹ | Activity [33]: Non-Toxic | Activity (Mus musculus [34]): 26.1 µL | MED (Homo sapiens [35]): 4 µg/mL | Activity (Homo sapiens [36]): Active | Activity (Erythrocyte): Non-Toxic | Activity (Homo sapiens [37]): Active | -TdeltaS [38]: -3.4 kcal/mol | Activity [39]: Non-Toxic
